Values joined by “and” are separate entries in the source; they are usually repeats but may differ in a detail not shown here. Identical values can stand only once.
Key:
[1] = tested on: high-fat diet (HFD)-induced obesity model mice; test: Hepatic lipid analysis (total lipid, triglyceride, total cholesterol) in HFD mice; format: in vivo, C57BL/6J mice; set-up: Liver TC (Fig. 4c), individual mouse values / Liver TG (Fig. 4d), individual mouse values / Total lipid, liver (Fig. 4e), individual mouse values / Mean Diff., ND vs. treated (Fig. 4c) / Mean Diff., Vehicle vs. treated (Fig. 4c) / Mean (Fig. 4c) / Mean Diff., ND vs. treated (Fig. 4d) / Mean Diff., Vehicle vs. treated (Fig. 4d) / Mean (Fig. 4d) / Mean 2 (group mean), Fig. 4e / Mean Diff., Vehicle vs. treatment, Fig. 4e: unit not given here; conditions: for Mean Diff., ND vs. treated (Fig. 4c) / Mean Diff., Vehicle vs. treated (Fig. 4c) / Mean Diff., ND vs. treated (Fig. 4d) / Mean Diff., Vehicle vs. treated (Fig. 4d): Tukey's multiple comparisons test; for Mean (Fig. 4c) / Mean (Fig. 4d) / Mean 2 (group mean), Fig. 4e: group mean, n=10; for Mean 2 (group mean), Fig. 4e: Tukey test details; for Mean Diff., Vehicle vs. treatment, Fig. 4e: vehicle mean 33.43 minus group mean
Experimental: Frozen livers were homogenized with chloroform-methanol (2:1), and the chloroform layer into which the liver lipids were extracted was collected. This extract was used to measure hepatic total lipid, triglyceride (TG), and total cholesterol (TC) contents. […] The total liver lipid content was measured according to the method described by Forch et al.[19].
Fig. 4 Effects of TH analogs on the accumulation of lipids in mice. […] After 3 weeks of injection, serum and liver tissues were collected, and the amount of serum cholesterol (a), serum triglycerides (b), liver cholesterol (c), liver triglycerides (d), and liver total lipids (e) were measured.

[2] = tested on: THRα; conditions: cited from earlier work
[3] = target: T1, full-length human THRα (Homo sapiens, UniProt P10827); test: [125I]-T3-displacement assay, THRα; conditions: from IC50 values THRα vs THRβ
T1 sequence (P10827 1-410 isoform P10827-2): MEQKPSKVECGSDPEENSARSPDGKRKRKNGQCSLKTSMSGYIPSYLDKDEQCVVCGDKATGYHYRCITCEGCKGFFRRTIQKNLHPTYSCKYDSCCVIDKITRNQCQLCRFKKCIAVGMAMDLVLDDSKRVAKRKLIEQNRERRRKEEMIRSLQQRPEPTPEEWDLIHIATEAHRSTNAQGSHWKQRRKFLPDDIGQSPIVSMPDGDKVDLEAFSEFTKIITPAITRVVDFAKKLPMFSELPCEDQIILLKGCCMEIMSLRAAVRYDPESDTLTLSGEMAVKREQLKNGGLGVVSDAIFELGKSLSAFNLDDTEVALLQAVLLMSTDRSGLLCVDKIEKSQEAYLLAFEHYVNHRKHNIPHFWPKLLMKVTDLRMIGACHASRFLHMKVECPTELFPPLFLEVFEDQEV
Experimental: The coding sequences of full-length human THRα and THRβ were amplified by PCR.
The PCR products of THRα and β were cloned into EcoRI–KpnI and EcoRI–XbaI sites of pTNT (Promega), respectively. The resultant expression vectors, pTNT-THRα and pTNT-THRβ, were used for the synthesis of THRs by in vitro translation.
THRα and THRβ were synthesized by in vitro translation using TNT T7 Quick Coupled Transcription and Translation kit (Promega) according to the manufacturer’s protocol. After incubation at 30 °C for 90 min, the reaction mixtures were stored at −80 °C until use.
The reaction mixture was incubated overnight at 4 °C. A nitrocellulose membrane (Optitran, 0.45 μm in pore size, Whatman) pre-blocked by E-400 buffer was placed on a dot-blot apparatus (Minifold I, GE Healthcare), and the reaction mixtures were filtered through the membrane followed by three washes with 200 μL E-400 buffer. […] Radioactive signals were scanned using Typhoon FLA9000 (GE Healthcare) and quantified by Image Quant TL software (GE Healthcare). The IC50 values for each competitor were calculated by fitting the dose–response data to the log (inhibitor) vs. response (three parameters) model using GraphPad Prism (version 8.0; GraphPad Software).
Data are shown as mean ± SD (n = 3). Data were fitted to the log (inhibitor) vs. response (three parameters) model using GraphPad Prism (version 8.0; GraphPad Software).

[4] = Heart weight (cardiac hypertrophy); conditions: for Heart weight, group mean (Mean 2): n 10, Vehicle mean 136.7; for heart weight vs vehicle: HFD mice, 3 weeks
Experimental: Male 7-week-old C57BL/6J mice were obtained from a local supplier (Nihon SLC, Shizuoka, Japan). The mice were individually housed in cages (Innocage; ORIENTAL GIKEN) at 23 °C with a 12-h-light–dark cycle starting at 08:00 a.m. […] The injection was prepared by dissolving the compounds in 0.5 N NaOH at a concentration of 100 mM, which was then further diluted with saline to a concentration of either 0.05 or 0.5 mM. The volume of the solution injected was determined based on the body weight of the animal, measured once a week, with 0.05 and 0.5 mM solutions injected at 0.1 and 1 µmol/kg day, respectively. Each group consisted of 10 animals, except for the ND (n = 8) and HFD with saline (vehicle, n = 9) groups.
After three weeks of daily injections, the body weights of the mice were measured. […] Subsequently, the animals were euthanized using deep isoflurane anesthesia, and the liver, heart, and epididymal adipose tissues were removed from the body. […] Hearts were weighed and fixed in 4% paraformaldehyde for 48 h in a cassette (Sakura Finetek Japan, Tokyo, Japan).
Heart weight was measured to assess heart toxicity. Data are shown as the mean ± SEM (n = 8–10). Significant differences among groups are indicated by asterisks (*P < 0.05, and ****P < 0.0001, one-way ANOVA with Tukey’s post-hoc test) (b).

[5] = tested on: left ventricular cardiomyocytes; test: Trans-nuclear width of left ventricular cardiomyocytes (hematoxylin-eosin staining); conditions: for Mean Diff. (Vehicle vs. treated group): Vehicle minus treated, Tukey's multiple comparisons test; for Mean (group mean, Fig. 7c; Tukey's multiple comparisons test details) / Mean Diff. (Vehicle vs. treated group): Fig. 7c
Experimental: Male 7-week-old C57BL/6J mice were obtained from a local supplier (Nihon SLC, Shizuoka, Japan). The mice were individually housed in cages (Innocage; ORIENTAL GIKEN) at 23 °C with a 12-h-light–dark cycle starting at 08:00 a.m. […] The injection was prepared by dissolving the compounds in 0.5 N NaOH at a concentration of 100 mM, which was then further diluted with saline to a concentration of either 0.05 or 0.5 mM. The volume of the solution injected was determined based on the body weight of the animal, measured once a week, with 0.05 and 0.5 mM solutions injected at 0.1 and 1 µmol/kg day, respectively. Each group consisted of 10 animals, except for the ND (n = 8) and HFD with saline (vehicle, n = 9) groups. In the ND-treated group, one animal died during the experimental period, and one animal was excluded from the analysis after finding tumor-like lesions in the liver. In the HFD-treated group, one animal was excluded from the analysis because its body weight was less than two standard deviations below the mean.
Heart tissues were fixed, dehydrated, and permeated with paraffin using an automatic fixation and encapsulation device (Sakura Finetech, Japan). Paraffin blocks were prepared using Tissue Tech TEC 6 (Sakura Finetech, Japan), and 5 µm-thick transverse transmural sections were prepared with a microtome (Leica). The sections were deparaffinized, rehydrated, and immersed in Meyer’s hematoxylin solution (FUJIFILM Wako Pure Chemical Industries), followed by eosin staining. Sections were dehydrated and mounted using Entellan New (Merck). Sections were observed under a microscope (BX43; Olympus) at × 400 magnification and digital images were captured using cellSens (Olympus). 100 cells were randomly selected from the left ventricle of an individual mouse, and their trans-nuclear widths were measured according to Oláh et al.[23] using Image J (National Institute of Health).
Heart sections were prepared and subjected to hematoxylin–eosin staining. 100 cells were randomly selected from the left ventricle of an individual mouse, their trans-nuclear widths were measured, and average values were calculated. Data are shown as the mean ± SEM (n = 8–10). Significant differences among groups are indicated by asterisks (*P < 0.05, **P < 0.01, ***P < 0.001, and ****P < 0.0001, one-way ANOVA with Tukey’s post-hoc test) (c).

[6] = HFD mice, i.p., dose not given (0.1 or 1 µmol/kg day), 3 weeks

Cc1cc(OCC(=O)O)cc(C)c1Cc1ccc(O)c(C(C)C)c1 [GC-1]
Liver TC (Fig. 4c), individual mouse values ([1]; 0.1 µmol, HFD mice): 1.641 and 1.677 and 1.869 and 2.323 and 2.266 and 1.713 and 1.915 and 2.417 and 2.05 and 2.041
Liver TG (Fig. 4d), individual mouse values ([1]; 0.1 µmol, HFD mice): 24.1421 and 24.9345 and 16.7281 and 53.1111 and 43.7729 and 30.8738 and 30.6856 and 28.2214 and 34.8729 and 73.7669
Total lipid, liver (Fig. 4e), individual mouse values ([1]; 0.1 µmol, HFD mice): 14.6 and 17.3 and 14 and 22.6 and 24.3 and 18.1 and 18.3 and 16.9 and 17.5 and 26.9
Liver TC (Fig. 4c), individual mouse values ([1]; 1 µmol, HFD mice): 1.533 and 1.874 and 2.437 and 2.533 and 1.78 and 2.383 and 1.435 and 2.474 and 2.396 and 2.183
Liver TG (Fig. 4d), individual mouse values ([1]; 1 µmol, HFD mice): 36.2948 and 32.7305 and 46.4896 and 42.7911 and 37.2232 and 76.8394 and 41.2151 and 27.0034 and 47.7732 and 49.1408
Total lipid, liver (Fig. 4e), individual mouse values ([1]; 1 µmol, HFD mice): 17.5 and 17.4 and 20.9 and 22.7 and 22.5 and 28.6 and 18.9 and 18.3 and 21 and 19.5
Mean Diff., ND vs. treated (Fig. 4c) ([1]; ND minus 0.1 µmol group): -0.7328
Mean Diff., ND vs. treated (Fig. 4c) ([1]; ND minus 1 µmol group): -0.8444
Mean Diff., Vehicle vs. treated (Fig. 4c) ([1]; Vehicle minus 0.1 µmol group): -0.4289
Mean Diff., Vehicle vs. treated (Fig. 4c) ([1]; Vehicle minus 1 µmol group): -0.5405
Mean (Fig. 4c) ([1]; 0.1 µmol, HFD mice): 1.991
Mean (Fig. 4c) ([1]; 1 µmol, HFD mice): 2.103
Mean Diff., ND vs. treated (Fig. 4d) ([1]; ND minus 0.1 µmol group): -7.809
Mean Diff., ND vs. treated (Fig. 4d) ([1]; ND minus 1 µmol group): -15.45
Mean Diff., Vehicle vs. treated (Fig. 4d) ([1]; Vehicle minus 0.1 µmol group): 37.27
Mean Diff., Vehicle vs. treated (Fig. 4d) ([1]; Vehicle minus 1 µmol group): 29.63
Mean (Fig. 4d) ([1]; 0.1 µmol, HFD mice): 36.11
Mean (Fig. 4d) ([1]; 1 µmol, HFD mice): 43.75
liver total lipids vs vehicle [1, 6]: significantly decreased
liver triglycerides vs vehicle [1, 6]: significantly decreased
Mean 2 (group mean), Fig. 4e ([1]; HFD mice, 0.1 µmol): 19.05
Mean Diff., Vehicle vs. treatment, Fig. 4e ([1]; HFD mice, 0.1 µmol): 14.38
Mean 2 (group mean), Fig. 4e ([1]; HFD mice, 1 µmol): 20.73
Mean Diff., Vehicle vs. treatment, Fig. 4e ([1]; HFD mice, 1 µmol): 12.7
lower affinity for THRα than T3 [2]: 10 fold
affinity to THRα lower than that to THRβ [3]: approximately 20 fold

O=C(O)Cc1cc(C(F)(F)F)c(Cc2ccc(O)c3ccccc23)c(C(F)(F)F)c1 [ZTA-261]
Heart weight (Fig. 7b), individual animal values ([4]; 0.1 µmol dose group): 120.4 and 125.5 and 128.7 and 142.9 and 126.8 and 139.4 and 134.1 and 147.6 and 135.4 and 150.2
Heart weight, Tukey's multiple comparisons test, Mean Diff. (Vehicle vs. compound) ([4]; 0.1 µmol dose group vs. Vehicle): 1.622
Heart weight, group mean (Mean 2) ([4]; 0.1 µmol dose group): 135.1
Heart weight (Fig. 7b), individual animal values ([4]; 1 µmol dose group): 135 and 135.2 and 126.1 and 150.6 and 150.7 and 152.1 and 152.8 and 145.4 and 154.6 and 138.8
Heart weight, Tukey's multiple comparisons test, Mean Diff. (Vehicle vs. compound) ([4]; 1 µmol dose group vs. Vehicle): -7.408
Heart weight, group mean (Mean 2) ([4]; 1 µmol dose group): 144.1
heart weight vs vehicle ([4]; i.p. 0.1 µmol/kg day): No such effect
heart weight vs vehicle ([4]; i.p. 1 µmol/kg day): No such effect
cardiac width (Fig. 7c), individual values ([5]; 0.1 µmol dose group): 11.9852 and 12.1667 and 12.7952 and 11.4055 and 11.1301 and 11.9423 and 11.9907 and 12.4833 and 12.1061 and 13.5905
cardiac width (Fig. 7c), individual values ([5]; 1 µmol dose group): 12.0147 and 12.4259 and 11.3636 and 12.41 and 12.0185 and 12.8514 and 11.9471 and 13.2394 and 12.2836 and 12.7848
Mean (group mean, Fig. 7c; Tukey's multiple comparisons test details) ([5]; HFD mice, dose 0.1 µmol): 12.16
Mean (group mean, Fig. 7c; Tukey's multiple comparisons test details) ([5]; HFD mice, dose 1 µmol): 12.33
transnuclear width of left ventricular cardiomyocytes vs vehicle ([5]; HFD mice, i.p. 1 µmol/kg day, 3 weeks): significantly increased
Mean Diff. (Vehicle vs. treated group) ([5]; dose 0.1 µmol): -1.182
Mean Diff. (Vehicle vs. treated group) ([5]; dose 1 µmol): -1.356

Reference: PMC11303563 (Communications Medicine, 2024)
